Test results taken from ChEMBL document CHEMBL5346916, “Discovery of acridine-based LSD1 inhibitors as immune activators targeting LSD1 in gastric cancer” (Eur J Med Chem, 2023).
pIC50: −log10 of the molar value. Values belong to the compound of their own block, whether it stands above or below them. Calls of active or inactive are those of the source. The calls are words filed in the database; no cut-off is given here.

How the values were obtained:
[1] = molecular target: T1, Lysine-specific histone demethylase 1A (Homo sapiens, UniProt O60341); test: Inhibition of recombinant LSD1 (unknown origin) expressed in Escherichia coli BL21(DE3) strain using H3K4me2 peptide as substrate at 10 uM incubated for 30 mins by fluorescence based analysis relative to control
[2] = molecular target: T1, Lysine-specific histone demethylase 1A; test: Inhibition of recombinant LSD1 (unknown origin) expressed in Escherichia coli BL21(DE3) strain using H3K4me2 peptide as substrate incubated for 30 mins by fluorescence based analysis
MFC [3] = test: Downregulation of PD-L1 mRNA level in […] cells at 1 to 4 uM incubated for 5 days by Q-RT-PCR analysis; assay type: functional, cell-based; details: dose 1-4 µM, time 5.0 day
[4] = Cytotoxicity against […] cells at 2 uM incubated for 5 days by CCK-8 method relative to control; assay type: functional; details: time 5 day
BGC-823 [5] = test: Cytotoxicity against human BGC-823 cells co-cultured with T cells assessed as increase in 4-1BB level at 2 uM measured after 5 days by Q-RT-PCR method; assay type: functional, cell-based; details: time 5.0 day
BGC-823 [6] = test: Antimigratory activity against human BGC-823 cells assessed as reduction in cell migration at 1 to 4 uM measured after 24 to 48 hrs by wound healing assay; assay type: functional, cell-based; details: dose 1-4 µM, time 24-48 hrs
BGC-823 [7] = test: Inhibition of stemness in human BGC-823 cells assessed as inhibition of CD44 expression at 1 to 4 uM measured after 5 days by Western blot analysis; assay type: functional, cell-based; details: dose 1-4 µM, time 5.0 day
MFC [8] = test: Antitumor activity against mouse MFC cells xenografted in 615 mouse model assessed as decrease in PD-L1 level administered as IG daily and measured every other day for 14 days by Western blot analysis; assay type: functional; details: dose 10-40 mg/kg, time 14.0 day
MFC [9] = test: Antitumor activity against mouse MFC cells xenografted in 615 mouse model assessed as increase in TNF-alpha m-RNA level at 10 to 40 mg/kg, IG administered daily and measured every other day for 14 days; assay type: functional, organism-based; details: dose 10-40 mg/kg, time 14.0 day
MFC [10] = test: Antitumor activity against mouse MFC cells xenografted in 615 mouse model assessed as suppression in tumor growth administered as IG daily and measured every other day for 14 days by caliper method; assay type: functional; details: dose 10-40 mg/kg, time 14.0 day
MFC [11] = test: Downregulation of PD-L1 level in […] cells incubated for 5 days by Western blot analysis; assay type: functional, cell-based; details: dose 1-4 µM, time 5.0 day
BGC-823 [12] = test: Cytotoxicity against human BGC-823 cells co-cultured with T cells assessed as increase in IFN-gamma level at 2 uM measured after 5 days by Q-RT-PCR method; assay type: functional, cell-based; details: time 5.0 day
BGC-823 [13] = test: Cytotoxicity against human BGC-823 cells co-cultured with T cells assessed as increase in TNF-alpha level at 2 uM measured after 5 days by Q-RT-PCR method; assay type: functional, cell-based; details: time 5.0 day
BGC-823 [14] = test: Cytotoxicity against human BGC-823 cells co-cultured with T cells assessed as increase in CCR7 level at 2 uM measured after 5 days by Q-RT-PCR method; assay type: functional, cell-based; details: time 5.0 day
BGC-823 [15] = test: Inhibition of stemness in human BGC-823 cells assessed as inhibition of OCT4 expression at 1 to 4 uM measured after 5 days by Western blot analysis; assay type: functional, cell-based; details: dose 1-4 µM, time 5.0 day
[16] = Toxicity in 615 mouse assessed as at 10 to 40 mg/kg, IG liver injury administered daily and measured every other day for 14 days; assay type: organism-based; details: in vivo, po, 336 h, dose 10-40 mg/kg, time 14 day
BGC-823 [17] = test: Inhibition of stemness in human BGC-823 cells assessed as inhibition of SOX2 expression at 1 to 4 uM measured after 5 days by Western blot analysis; assay type: functional, cell-based; details: dose 1-4 µM, time 5.0 day
MFC [18] = test: Antitumor activity against mouse MFC cells xenografted in 615 mouse model assessed as reduction in tumor weight at 10 to 40 mg/kg, IG administered daily and measured every other day for 14 days […]; assay type: functional, organism-based; details: dose 10-40 mg/kg, time 14.0 day
BGC-823 [19] = test: Cytotoxicity against human BGC-823 cells co-cultured with T cells assessed as increase in IL-2 level at 2 uM measured after 5 days by Q-RT-PCR method; assay type: functional, cell-based; details: time 5.0 day
[20] = Toxicity in 615 mouse assessed as at 10 to 40 mg/kg, IG kidney injury administered daily and measured every other day for 14 days; assay type: organism-based; details: in vivo, po, 336 h, dose 10-40 mg/kg, time 14 day
[21] = molecular target: T1, Lysine-specific histone demethylase 1A; test: Binding affinity to recombinant LSD1 (unknown origin) assessed as thermal stability at 4 uM by thermal shift assay
BGC-823 [22] = test: Downregulation of PD-L1 level in human BGC-823 cells incubated for 5 days by Western blot analysis; assay type: functional, cell-based; details: dose 1-4 µM, time 5.0 day
[23] = molecular target: Programmed cell death protein 1/Programmed cell death 1 ligand 1 (Homo sapiens) (UniProt Q15116+Q9NZQ7); test: Inhibition of recombinant PD-1 binding to PD-L1 in human BGC-823 cells measured after 5 days by DAPI staining based confocal microscopy analysis; assay type: cell-based; details: dose 1-4 µM, time 5.0 day
BGC-823 [24] = test: Downregulation of PD-L1 mRNA level in human BGC-823 cells at 1 to 4 uM incubated for 5 days by Q-RT-PCR analysis; assay type: functional, cell-based; details: dose 1-4 µM, time 5.0 day
[25] = molecular target: T1, Lysine-specific histone demethylase 1A; test: Inhibition of LSD1 (unknown origin) human BGC-823 cells assessed as suppression of H3K4me1 methylation measured after 5 days by Western blot analysis; assay type: cell-based; details: dose 1-4 µM, time 5.0 day
[26] = Toxicity in 615 mouse assessed as change in body weight at 10 to 40 mg/kg, IG administered daily and measured every other day for 14 days; assay type: organism-based; details: in vivo, po, 336 h, dose 10-40 mg/kg, time 14 day
MFC [27] = test: Antitumor activity against mouse MFC cells xenografted in 615 mouse model assessed as increase in IL-2 m-RNA level at 10 to 40 mg/kg, IG administered daily and measured every other day for 14 days; assay type: functional, organism-based; details: dose 10-40 mg/kg, time 14.0 day
MFC [28] = test: Antitumor activity against mouse MFC cells xenografted in 615 mouse model assessed as increase in IFN-gamma m-RNA level at 10 to 40 mg/kg, IG administered daily and measured every other day for 14 days; assay type: functional, organism-based; details: dose 10-40 mg/kg, time 14.0 day
[29] = molecular target: T1, Lysine-specific histone demethylase 1A; test: Inhibition of LSD1 in human BGC-823 cells assessed as suppression of H3K4me2 methylation measured after 5 days by Western blot analysis; assay type: cell-based; details: dose 1-4 µM, time 5.0 day
BGC-823 [30] = test: Cytotoxicity against human BGC-823 cells co-cultured with T cells assessed as reduction in cell viability measured after 5 days by CCK8 method; assay type: functional, cell-based; details: dose 1-4 µM, time 5.0 day

inhibition [1]: 25%
SMILES: c1ccc2c(Nc3ccc(N4CCCCC4)cc3)c3ccccc3nc2c1

pIC50 [2]: 5.98 | inhibition [1]: 99.2%
SMILES: c1ccc(Nc2c3ccccc3nc3ccccc23)cc1

pIC50 [2]: 6.18 | inhibition [1]: 100%
SMILES: CS(=O)(=O)Nc1ccc(Nc2c3ccccc3nc3ccccc23)cc1

inhibition [1]: 4.01%
SMILES: NS(=O)(=O)c1ccc(Nc2c3ccccc3nc3ccccc23)cc1

Activity [21]: Active | pIC50 [2]: 7.14 | inhibition [1]: 100% | inhibition [25]: Dose-Dependent Effect | inhibition [29]: Dose-Dependent Effect
SMILES: CN1CCN(c2ccc(Nc3c4ccccc4nc4ccccc34)cc2)CC1
Activity (MFC [3]): Active | Activity [4]: <10% | Activity (BGC-823 [5]): Active | Activity (BGC-823 [6]): Active | inhibition (BGC-823 [7]): Active | Activity (MFC [8]): Dose-Dependent Effect | Activity (MFC [9]): Active | Activity (MFC [10]): Dose-Dependent Effect | Activity (MFC [11]): Dose-Dependent Effect | Activity (BGC-823 [12]): Active | Activity (BGC-823 [13]): Active | Activity (BGC-823 [14]): Active | inhibition (BGC-823 [15]): Active | Activity [16]: Non-Toxic | inhibition (BGC-823 [17]): Active | Activity (MFC [18]): Active | Activity (BGC-823 [19]): Active | Activity [20]: Non-Toxic | Activity (BGC-823 [22]): Dose-Dependent Effect | inhibition [23]: Dose-Dependent Effect | Activity (BGC-823 [24]): Active | Activity [26]: Toxic | Activity (MFC [27]): Active | Activity (MFC [28]): Active | Activity (BGC-823 [30]): Dose-Dependent Effect

pIC50 [2]: 5.45 | inhibition [1]: 67.8%
SMILES: CC(=O)Nc1ccc(Nc2c3ccccc3nc3ccccc23)cc1

pIC50 [2]: 5.94 | inhibition [1]: 100%
SMILES: COc1ccc(Nc2c3ccccc3nc3ccccc23)cc1

inhibition [1]: 43.4%
SMILES: CC(C)c1ccc(Nc2c3ccccc3nc3ccccc23)cc1

pIC50 [2]: 5.08 | inhibition [1]: 100%
SMILES: Nc1ccccc1Nc1c2ccccc2nc2ccccc12

inhibition [1]: 41%
SMILES: O=C1COCCN1c1ccc(Nc2c3ccccc3nc3ccccc23)cc1

inhibition [1]: 45.6%
SMILES: CN1CCN(Cc2ccc(Nc3c4ccccc4nc4ccccc34)cc2)CC1

inhibition [1]: 29.8%
SMILES: N#Cc1ccc(Nc2c3ccccc3nc3ccccc23)cc1

pIC50 [2]: 5.44 | inhibition [1]: 57.9%
SMILES: Cc1ccc(Nc2c3ccccc3nc3ccccc23)cc1

pIC50 [2]: 6.22 | inhibition [1]: 100%
SMILES: Nc1ccc(Nc2c3ccccc3nc3ccccc23)cc1

pIC50 [2]: 6.66 | inhibition [1]: 100%
SMILES: c1ccc2c(Nc3ccc(N4CCNCC4)cc3)c3ccccc3nc2c1

inhibition [1]: 19.2%
SMILES: Cc1cnc(NS(=O)(=O)c2ccc(Nc3c4ccccc4nc4ccccc34)cc2)o1

pIC50 [2]: 6.13 | inhibition [1]: 79.7%
SMILES: CSc1ccc(Nc2c3ccccc3nc3ccccc23)cc1

pIC50 [2]: 6.06 | inhibition [1]: 100%
SMILES: COc1cc(NS(C)(=O)=O)ccc1Nc1c2ccccc2nc2ccccc12 [AMSACRINE]

pIC50 [2]: 5.41 | inhibition [1]: 68.6%
SMILES: Cc1ccc2cc(Nc3c4ccccc4nc4ccccc34)ccc2n1

pIC50 [2]: 6.35 | inhibition [1]: 100%
SMILES: c1ccc2c(Nc3ccc(N4CCOCC4)cc3)c3ccccc3nc2c1

The next lines start with the compound.

SMILES: Nc1ccc(Oc2c3ccccc3nc3ccccc23)cc1
pIC50 [2]: 5.76 | inhibition [1]: 100%

SMILES: CCn1c2ccccc2c2ccc(Nc3c4ccccc4nc4ccccc34)cc21
pIC50 [2]: 6.15 | inhibition [1]: 97.2%

SMILES: c1ccc(CN2CCN(c3ccc(Nc4c5ccccc5nc5ccccc45)cc3)CC2)cc1
pIC50 [2]: 5.62 | inhibition [1]: 97%

SMILES: Cc1cc2nc3ccccc3c(Nc3ccc(N4CCN(C)CC4)cc3)c2cc1C
pIC50 [2]: 7.07 | inhibition [1]: 100%

SMILES: COc1ccc2c(Nc3ccc(N4CCN(C)CC4)cc3)c3ccccc3nc2c1
pIC50 [2]: 6.85 | inhibition [1]: 100%

SMILES: COc1cccc2c(Nc3ccc(N4CCN(C)CC4)cc3)c3ccccc3nc12
pIC50 [2]: 6.89 | inhibition [1]: 100%

SMILES: Cc1ccc2nc3c(C)c(C)ccc3c(Nc3ccc(N4CCN(C)CC4)cc3)c2c1
pIC50 [2]: 7.00 | inhibition [1]: 100%

SMILES: CCN1CCN(c2ccc(Nc3c4ccccc4nc4ccccc34)cc2)CC1
pIC50 [2]: 6.96 | inhibition [1]: 100%

SMILES: CN1CCN(c2ccc(Nc3c4ccccc4nc4c(N(C)C)cccc34)cc2)CC1
pIC50 [2]: 5.22 | inhibition [1]: 97%

SMILES: Nc1ccc(Sc2c3ccccc3nc3ccccc23)cc1
pIC50 [2]: 6.01 | inhibition [1]: 100%

SMILES: COc1ccc2nc3ccccc3c(Nc3ccc(N4CCN(C)CC4)cc3)c2c1
pIC50 [2]: 6.64 | inhibition [1]: 100%

SMILES: CN1CCN(c2ccc(Nc3c4ccccc4nc4ccc(Cl)cc34)cc2)CC1
pIC50 [2]: 6.55 | inhibition [1]: 100%

SMILES: c1ccc2c(NN3CCCCC3)c3ccccc3nc2c1
pIC50 [2]: 5.78 | inhibition [1]: 95.3%

SMILES: c1ccc2c(NCCN3CCOCC3)c3ccccc3nc2c1
inhibition [1]: 22.4%

SMILES: CC(C)c1ccc2nc3ccccc3c(Nc3ccc(N4CCN(C)CC4)cc3)c2c1
pIC50 [2]: 6.64 | inhibition [1]: 100%

SMILES: c1ccc2c(Nc3ccc4c(c3)OCCO4)c3ccccc3nc2c1
pIC50 [2]: 6.07 | inhibition [1]: 97.7%

SMILES: Fc1ccc(C(c2ccc(F)cc2)N2CCN(c3ccc(Nc4c5ccccc5nc5ccccc45)cc3)CC2)cc1
pIC50 [2]: 6.15 | inhibition [1]: 68.1%
